Results from the NIST ThermoML archive (doi:10.1016/j.jct.2019.03.007).

Experiment: molar heat capacity at constant pressure
Conditions: 101.33 kPa, Crystal 1, DSC

O=[N+]([O-])[O-].O=[N+]([O-])[O-].[Ca+2] [calcium nitrate]
Conditions	molar heat capacity at constant pressure [J/K/mol]
460.78 K	169.24
461 K	167.84
461.78 K	169.39
462 K	167.76
462.78 K	169.54
463 K	167.86
463.78 K	169.69
464 K	168.02
464.78 K	169.84
465 K	168.08
465.78 K	169.99
466 K	168.25
466.78 K	170.14
467 K	168.45
467.78 K	170.28
468 K	168.56
468.78 K	170.43
469 K	168.64
469.78 K	170.57
470 K	168.78
470.78 K	170.71
471 K	169.08
471.78 K	170.84
472 K	169
472.78 K	170.98
473 K	169.04
473.78 K	171.11
474 K	169.16
474.78 K	171.24
475 K	169.1
475.78 K	171.37
476 K	169.34
476.78 K	171.5
477 K	169.7
477.78 K	171.63
478 K	169.85
478.78 K	171.76
479 K	169.98
479.78 K	171.88
480 K	170.3
480.78 K	172.01
481 K	170.38
481.78 K	172.14
482 K	170.53
482.78 K	172.27
483 K	170.78
483.78 K	172.4
484 K	171.03
484.78 K	172.53
485 K	171.06
485.78 K	172.66
486 K	171.2
486.78 K	172.79
487 K	171.33
487.78 K	172.92
488 K	171.57
488.78 K	173.05
489 K	171.63
489.78 K	173.19
490 K	171.74
490.78 K	173.32
491 K	171.84
491.78 K	173.45
492 K	172.06
492.78 K	173.58
493 K	172.18
493.78 K	173.7
494 K	172.32
494.78 K	173.83
495 K	172.25
495.78 K	173.96
496 K	172.55
496.78 K	174.08
497 K	172.8
497.78 K	174.21
498 K	172.81
498.78 K	174.34
499 K	172.68
499.78 K	174.47
500 K	172.79
500.78 K	174.6
501 K	172.74
501.78 K	174.72
502 K	172.79
502.78 K	174.85
503 K	172.93
503.78 K	174.98
504 K	173.02
504.78 K	175.1
505 K	173.14
505.78 K	175.23
506 K	173.3
506.78 K	175.35
507 K	173.5
507.78 K	175.47
508 K	173.86
508.78 K	175.6
509 K	173.88
509.78 K	175.72
510 K	173.92
510.78 K	175.84
511 K	174.13
511.78 K	175.96
512 K	174.3
512.78 K	176.08
513 K	174.4
513.78 K	176.2
514 K	174.42
514.78 K	176.32
515 K	174.62
515.78 K	176.44
516 K	174.84
516.78 K	176.57
517 K	175.25
517.78 K	176.69
518 K	175.28
518.78 K	176.81
519 K	175.29
519.78 K	176.93
520 K	175.21
520.78 K	177.05
521 K	175.26
521.78 K	177.17
522 K	175.43
522.78 K	177.29
523 K	175.67
523.78 K	177.42
524 K	175.75
